Where “and” joins values, the source holds several entries; their conditions need not be identical. Equal values may be shown once.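 In this assay, cells in 96-well plates receive the compound at five concentrations for 48 hours. Endpoints are linearly interpolated between the surrounding concentrations. TGI: total growth inhibition.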
Tested on: COLO 205 colon
Experiment: NCI tumour cell line growth inhibition, 48 h

First: CC12CCC(O)CC1CCC1C2CCC2(C)C(C(=O)CC(O)C(F)(F)F)CCC12 (stereo not drawn)
Second: CC1=C(CO)C(=O)O[C@@H]([C@@H](CO)[C@H]2CCC3C4C[C@@H](O)[C@@]5(O)CC=CC(=O)[C@]5(C)C4CC[C@@]32C)C1 (stereo partly drawn)
The TGI of the first is lower: 33.1 µM for the first, > 100 µM for the second.

First: CC(C)(C)OC(=O)NCCCNC1(c2cc3ccccc3s2)CCCCC1
Second: COc1ccc2c(c1)CCN1CCc3ccccc3CC21 (stereo not drawn)
The TGI of the first is 1.7-fold lower: 27.8 µM for the first, 46.1 µM for the second.

First: COc1ccc(N2C(=O)CSC2c2c[nH]c3ccccc23)cc1 (stereo not drawn)
Second: CN(C)c1ccc(C2SCC(=O)N2c2ccc(Oc3ccc(Cl)cc3)c(Cl)c2)cc1 (stereo not drawn)
The TGI of the first is higher: > 100 µM for the first, 36.2 µM for the second.

Going from `C=CCOc1ccc(C2(O)c3ccccc3C3=NCCCN32)cc1` (stereo not drawn) to `CSc1cnc2ccccc2c1SC1CN(Cc2ccccc2)c2ccccc2C1=O` (stereo not drawn), the TGI rises from 43.5 µM to > 100 µM.

Going from `CCC/C(Cl)=N\OC(=O)Nc1ccc(OC(F)(F)F)cc1` to `CCNC(=O)Nc1cccc(NC(=O)NCC)n1`, the TGI rises from 3.54 µM to > 100 µM.

`C[N+]12CCCCC1C(CN1C(=O)Cc3c4ccccc4c(c4ccccc34)CC1=O)CCC2` (stereo not drawn) and `S=C(Nc1ccc2c(c1)oc1ccccc12)c1cccnc1` cannot be ordered by TGI: > 100 µM for the first, > 100 µM for the second.

`CC(=O)O[C@H]1CC[C@@]2(C)C(=CC[C@H]3[C@@H]4C[C@H](N5CCOCC5)[C@H](OC(C)=O)[C@@]4(C)CC[C@@H]32)C1` and `C=C([C@@]1(O)C[C@H]2[C@H](CCC2(OC)OC)[C@@H]2c3ccccc3O[C@@H]21)[Si](C)(C)C` cannot be ordered by TGI: > 100 µM for the first, > 100 µM for the second.

`CCC1(C)C=Cc2c(cc(O)c3c(=O)c4ccccc4n(C)c23)O1` (stereo not drawn) and `NNC(=O)CSc1nc2ccccc2c(=O)n1N` cannot be ordered by TGI: > 10 µM for the first, > 100 µM for the second.

Compared with `CC(C)(Cl)C(Br)CCC(=CCCl)CBr` (mixture of isomers), `C=C(Cl)C(C)(Cl)CCC(Br)C(C)(C)Cl` (stereo not drawn) is 6.2-fold higher in TGI: 5.15 µM for the first, 31.8 µM for the second.

First: Nc1[nH]nc2nc3ccc(C(F)(F)F)cc3nc12
Second: Oc1cccc(-c2nc3cc(F)ccc3s2)c1
The TGI of the first is 1.9-fold higher: 57.3 µM for the first, 30 µM for the second.

First: CCN1CCC(O)(/C=C/c2ccc(C)cc2C)C(C(=O)/C=C/c2ccc(C)cc2C)C1 (stereo not drawn)
Second: CN1COCc2c1ccc1cc3ccc4c(c3nc21)COCN4S(C)(=O)=O
The TGI of the first is lower: 4.05 µM for the first, > 100 µM for the second.

Going from `O=[N+]([O-])/C(C(Cl)=C(Cl)Cl)=C(\N1CCCCC1)n1cncn1` to `Nc1ccc(C(=O)N2CCC[C@H]2CO)c(N)c1`, the TGI rises from 30.3 µM to > 100 µM.

Going from `O=C1c2cccnc2-c2nccc3c2c1nc1cc(Br)ccc13` to `Cc1cc(S(=O)(=O)Nc2nc3cc(-c4ccc(Cl)cc4)sc3c(=O)n2N)c(S)cc1Cl`, the TGI rises from 2.12 µM to 56.1 µM (26-fold).

For `NC(CCC(=O)NC(CSCC1C(=O)Nc2ccccc21)C(=O)NCC(=O)O)C(=O)O` (stereo not drawn), the TGI was 10.5 µM.

With `CN(C)CCOC1(Cc2ccc(F)cc2)CCC(C(C)(C)C)CC1` (stereo not drawn) the TGI was 4.7 µM and 5.66 µM.

Tested on: EKVX NSCLC
Experiment: NCI tumour cell line growth inhibition, 48 h

First: CC12CCC(O)CC1CCC1C2CCC2(C)C(C(=O)CC(O)C(F)(F)F)CCC12 (stereo not drawn)
Second: CC1=C(CO)C(=O)O[C@@H]([C@@H](CO)[C@H]2CCC3C4C[C@@H](O)[C@@]5(O)CC=CC(=O)[C@]5(C)C4CC[C@@]32C)C1 (stereo partly drawn)
The TGI of the first is lower: 98.9 µM for the first, > 100 µM for the second.

First: CC(C)(C)OC(=O)NCCCNC1(c2cc3ccccc3s2)CCCCC1
Second: COc1ccc2c(c1)CCN1CCc3ccccc3CC21 (stereo not drawn)
The TGI of the first is lower: 28.6 µM for the first, > 100 µM for the second.

First: COc1ccc(N2C(=O)CSC2c2c[nH]c3ccccc23)cc1 (stereo not drawn)
Second: CN(C)c1ccc(C2SCC(=O)N2c2ccc(Oc3ccc(Cl)cc3)c(Cl)c2)cc1 (stereo not drawn)
The TGI of the first is higher: > 100 µM for the first, 60.5 µM for the second.

`C=CCOc1ccc(C2(O)c3ccccc3C3=NCCCN32)cc1` (stereo not drawn) and `CSc1cnc2ccccc2c1SC1CN(Cc2ccccc2)c2ccccc2C1=O` (stereo not drawn) cannot be ordered by TGI: > 100 µM for the first, > 100 µM for the second.

Going from `CCC/C(Cl)=N\OC(=O)Nc1ccc(OC(F)(F)F)cc1` to `CCNC(=O)Nc1cccc(NC(=O)NCC)n1`, the TGI rises from 40.1 µM to > 100 µM.

`C[N+]12CCCCC1C(CN1C(=O)Cc3c4ccccc4c(c4ccccc34)CC1=O)CCC2` (stereo not drawn) and `S=C(Nc1ccc2c(c1)oc1ccccc12)c1cccnc1` cannot be ordered by TGI: > 100 µM for the first, > 100 µM for the second.

`CC(=O)O[C@H]1CC[C@@]2(C)C(=CC[C@H]3[C@@H]4C[C@H](N5CCOCC5)[C@H](OC(C)=O)[C@@]4(C)CC[C@@H]32)C1` and `C=C([C@@]1(O)C[C@H]2[C@H](CCC2(OC)OC)[C@@H]2c3ccccc3O[C@@H]21)[Si](C)(C)C` cannot be ordered by TGI: > 100 µM for the first, > 100 µM for the second.

`CCC1(C)C=Cc2c(cc(O)c3c(=O)c4ccccc4n(C)c23)O1` (stereo not drawn) and `NNC(=O)CSc1nc2ccccc2c(=O)n1N` cannot be ordered by TGI: > 10 µM for the first, > 100 µM for the second.

Compared with `CC(C)(Cl)C(Br)CCC(=CCCl)CBr` (mixture of isomers), `C=C(Cl)C(C)(Cl)CCC(Br)C(C)(C)Cl` (stereo not drawn) is higher in TGI: 36.1 µM for the first, > 100 µM for the second.

Going from `Nc1[nH]nc2nc3ccc(C(F)(F)F)cc3nc12` to `Oc1cccc(-c2nc3cc(F)ccc3s2)c1`, the TGI falls from > 100 µM to 32.5 µM.

`CCN1CCC(O)(/C=C/c2ccc(C)cc2C)C(C(=O)/C=C/c2ccc(C)cc2C)C1` (stereo not drawn) and `CN1COCc2c1ccc1cc3ccc4c(c3nc21)COCN4S(C)(=O)=O` cannot be ordered by TGI: > 26 µM for the first, > 100 µM for the second.

First: O=[N+]([O-])/C(C(Cl)=C(Cl)Cl)=C(\N1CCCCC1)n1cncn1
Second: Nc1ccc(C(=O)N2CCC[C@H]2CO)c(N)c1
The TGI of the first is lower: 31.6 µM for the first, > 100 µM for the second.

Compared with `O=C1c2cccnc2-c2nccc3c2c1nc1cc(Br)ccc13`, `Cc1cc(S(=O)(=O)Nc2nc3cc(-c4ccc(Cl)cc4)sc3c(=O)n2N)c(S)cc1Cl` is higher in TGI: 2.52 µM for the first, > 100 µM for the second.

`NC(CCC(=O)NC(CSCC1C(=O)Nc2ccccc21)C(=O)NCC(=O)O)C(=O)O` (stereo not drawn) was tested, and the TGI was 31.2 µM.

For `CN(C)CCOC1(Cc2ccc(F)cc2)CCC(C(C)(C)C)CC1` (stereo not drawn), the TGI was 27.4 µM and 32.5 µM.

Tested on: HCC-2998 colon
Experiment: NCI tumour cell line growth inhibition, 48 h

First: CC12CCC(O)CC1CCC1C2CCC2(C)C(C(=O)CC(O)C(F)(F)F)CCC12 (stereo not drawn)
Second: CC(C)(C)OC(=O)NCCCNC1(c2cc3ccccc3s2)CCCCC1
The TGI of the first is 5.6-fold higher: 80 µM for the first, 14.3 µM for the second.
